According to patent publication US7994140B2, “Classes of compounds that interact with GPCRs” (Alchemia Limited, priority 2002, dated 2011):

Biological target: T1, SST5 (Homo sapiens, UniProt P35346)
T1 construct: purchased Perkin Elmer BioSignal; host or cells: HEK 293
Assay: GPCR radioligand binding (RLB) assay, somatostatin SST5, [125I]SST-14
Conditions: 10 micromolar compound; recombinant human receptor membranes (HEK 293)
Protocol: Recombinant human receptors expressed in HEK 293 cells were used for all experiments. Receptor membrane preparations were purchased from Perkin Elmer BioSignal. The labelled ligand used in somatostatin GPCR RLB assays was [^125I]SST-14 and in melanocortin assays was [^125I]NDP-αMSH. All assays were done in a 96-well plate format using either glass fiber filter mats or filter plates. All reagents purchased were of the highest quality.
Specific assay buffer, incubation and washing conditions were optimized for each receptor however they all followed the same general format. The procedures for both filter mat and filter plate formats are based on the receptor manufacturers recommendations or those described extensively in the literature. The procedures are briefly outlined below.
In assays where filter mats are used we incubate receptor membranes, assay buffer and [^125I] labelled ligand in 96 well microplates. Add compounds to incubation mixture and continue incubation for optimized period. Presoak Filter mat GF/B in 0.5% PEI for ˜2 hr at 4° C. On completion of assay mixture incubation add additional 100 μL/well of assay buffer immediately prior to filtration. Filter the assay mixture onto the GF/B filter mat using a cell harvester. Dry the filter mats prior to sealing them into a scintillation counting bag with scintillant. Radioactivity in each well is detected by liquid scintillation counting.
In assays where filter plates are used Multiscreen glass fiber filter plates (Millipore, Cat No MAFCNOB10) are precoated with 0.5% PEI for ˜2 hr at 4° C. All wells are then washed with 200 µl/well assay buffer and filtered using the Multiscreen Separation System. Subsequently receptor membranes, assay buffer and labelled ligands are added to the wells and equilibrated. Compounds for testing are then added to the mixture and incubation is continued for an optimized time. Plates are then put into the Multiscreen Separation System and the assay mixture is filtered through the plate under vacuum. Each well is then washed several times with assay buffer. Plates are then dried prior to putting sealing tape onto the bottom of the plate. Scintillant is added to each well and radioactivity measured by liquid scintillation counting.
Raw data was analysed according to standard methods using either GraphPad Prism software or IDDBS ActivityBase software.

T1 sequence (P35346 whole entry): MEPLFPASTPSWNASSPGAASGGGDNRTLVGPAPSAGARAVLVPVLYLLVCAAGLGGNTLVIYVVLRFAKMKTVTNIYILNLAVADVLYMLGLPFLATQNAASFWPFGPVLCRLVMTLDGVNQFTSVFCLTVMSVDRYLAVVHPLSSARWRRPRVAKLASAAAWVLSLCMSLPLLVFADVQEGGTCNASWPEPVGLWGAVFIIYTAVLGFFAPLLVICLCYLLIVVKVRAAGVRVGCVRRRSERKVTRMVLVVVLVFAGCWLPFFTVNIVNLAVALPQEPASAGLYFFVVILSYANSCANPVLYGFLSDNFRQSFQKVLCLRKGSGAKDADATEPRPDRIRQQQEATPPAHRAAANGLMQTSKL

SMILES | SST5 inhibition at 10 micromolar
COC[C@H]1OC(OCc2ccccc2)[C@H](NC(=O)CCCN)[C@@H](OCc2ccccc2)[C@@H]1O (stereo partly drawn) [Compound 9] | + (Indicates inhibition greater than . . . 50%)
COC[C@H]1OC(OCc2ccccc2)[C@H](NC(=O)CCNC(=N)N)[C@@H](OCc2ccc(Cl)cc2)[C@@H]1O (stereo partly drawn) [Compound 10] | + (Indicates inhibition greater than . . . 50%)
COC[C@H]1OC(OCc2ccccc2)[C@H](NC(=O)CCCN)[C@@H](OCc2ccc(Cl)cc2)[C@@H]1O (stereo partly drawn) [Compound 11] | + (Indicates inhibition greater than . . . 50%)
COC[C@H]1OC(OCc2ccccc2)[C@H](NC(=O)CCCNC(=N)N)[C@@H](OCc2ccc(Cl)cc2)[C@@H]1O (stereo partly drawn) [Compound 12] | + (Indicates inhibition greater than . . . 50%)
COC[C@H]1OC(OCc2ccc(Cl)cc2)[C@H](NC(=O)CCCN)[C@@H](OCc2ccccc2)[C@@H]1O (stereo partly drawn) [Compound 16] | + (Indicates inhibition greater than . . . 50%)
COC[C@H]1OC(OCc2ccc(Cl)cc2)[C@H](NC(=O)CCNC(=N)N)[C@@H](OCc2ccc(Cl)cc2)[C@@H]1O (stereo partly drawn) [Compound 17] | + (Indicates inhibition greater than . . . 50%)
COC[C@H]1OC(OCc2ccc(Cl)cc2)[C@H](NC(=O)CCCNC(=N)N)[C@@H](OCc2ccc(Cl)cc2)[C@@H]1O (stereo partly drawn) [Compound 18] | + (Indicates inhibition greater than . . . 50%)
COC[C@H]1OC(OCc2cccc(O)c2)[C@H](NC(=O)CCNC(=N)N)[C@@H](OCc2ccc(-c3ccccc3)cc2)[C@@H]1O (stereo partly drawn) [Compound 21] | + (Indicates inhibition greater than . . . 50%)
COC[C@H]1OC(OCc2ccc(-c3ccccc3)cc2)[C@H](NC(=O)CCCN)[C@@H](OCc2cccc(O)c2)[C@@H]1O (stereo partly drawn) [Compound 22] | + (Indicates inhibition greater than . . . 50%)
COC[C@H]1OC(OCc2ccc3ccccc3c2)[C@H](NC(=O)CCCN)[C@@H](OCc2cccc(O)c2)[C@@H]1O (stereo partly drawn) [Compound 23] | + (Indicates inhibition greater than . . . 50%)
COC[C@H]1OC(OCc2ccc3ccccc3c2)[C@H](NC(=O)CCCNC(=N)N)[C@@H](OCc2cccc(O)c2)[C@@H]1O (stereo partly drawn) [Compound 24] | + (Indicates inhibition greater than . . . 50%)
COC[C@H]1OC(OCc2ccccc2)[C@H](NC(=O)CCCN)[C@@H](OCc2cccc(O)c2)[C@@H]1O (stereo partly drawn) [Compound 25] | + (Indicates inhibition greater than . . . 50%)
COC[C@H]1OC(OCc2ccc(Cl)cc2)[C@H](NC(=O)CCCN)[C@@H](OCc2cccc(O)c2)[C@@H]1O (stereo partly drawn) [Compound 26] | + (Indicates inhibition greater than . . . 50%)
COC[C@H]1OC(OCCc2ccccc2)[C@H](NC(=O)CCCN)[C@@H](OCc2cccc(O)c2)[C@@H]1O (stereo partly drawn) [Compound 27] | + (Indicates inhibition greater than . . . 50%)
COC[C@H]1OC(OCc2ccc(-c3ccccc3)cc2)[C@H](NC(=O)CCNC(=N)N)[C@@H](OCc2ccccc2)[C@@H]1O (stereo partly drawn) [Compound 31] | + (Indicates inhibition greater than . . . 50%)
COC[C@H]1OC(OCc2ccc3ccccc3c2)[C@H](NC(=O)CCCNC(=N)N)[C@@H](OCc2ccccc2)[C@@H]1O (stereo partly drawn) [Compound 41] | + (Indicates inhibition greater than . . . 50%)
COC[C@H]1OC(OCc2ccc3ccccc3c2)[C@H](NC(=O)CCCN)[C@@H](OCc2ccc(Cl)cc2)[C@@H]1O (stereo partly drawn) [Compound 42] | + (Indicates inhibition greater than . . . 50%)
COC[C@H]1OC(OCc2ccc(Cl)cc2)[C@H](NC(=O)CCCN)[C@@H](OCc2ccc(-c3ccccc3)cc2)[C@@H]1O (stereo partly drawn) [Compound 44] | + (Indicates inhibition greater than . . . 50%)

SMILES | SST5 inhibition at 10 micromolar
COC[C@H]1OC(OCc2ccc(Cl)cc2)[C@H](NC(=O)CCCNC(=N)N)[C@@H](OCc2ccccc2)[C@@H]1O (stereo partly drawn) [Compound 47] | + (Indicates inhibition greater than . . . 50%)
COC[C@H]1OC(OCCc2ccccc2)[C@H](NC(=O)CCCN)[C@@H](OCc2ccc(-c3ccccc3)cc2)[C@@H]1O (stereo partly drawn) [Compound 48] | + (Indicates inhibition greater than . . . 50%)
COC[C@H]1OC(OCCc2ccccc2)[C@H](NC(=O)CCCN)[C@@H](OCc2ccc3ccccc3c2)[C@@H]1O (stereo partly drawn) [Compound 50] | + (Indicates inhibition greater than . . . 50%)
COC[C@H]1OC(OCCc2ccccc2)[C@H](NC(=O)CCCN)[C@@H](OCc2ccc(Cl)cc2)[C@@H]1O (stereo partly drawn) [Compound 51] | + (Indicates inhibition greater than . . . 50%)
COC[C@H]1OC(OCCc2ccccc2)[C@H](NC(=O)CCCNC(=N)N)[C@@H](OCc2ccc(Cl)cc2)[C@@H]1O (stereo partly drawn) [Compound 52] | + (Indicates inhibition greater than . . . 50%)
COC[C@H]1OC(OCc2ccccc2)[C@H](NC(=O)CCCN)[C@@H](OCc2ccc3ccccc3c2)[C@@H]1O (stereo partly drawn) [Compound 54] | + (Indicates inhibition greater than . . . 50%)
COC[C@H]1OC(OCc2ccc(Cl)cc2)[C@H](NC(=O)CCCN)[C@@H](OCc2ccc(Cl)cc2)[C@@H]1O (stereo partly drawn) [Compound 55] | + (Indicates inhibition greater than . . . 50%)
CO[C@H]1[C@H](O)[C@@H](COCc2ccc3ccccc3c2)OC(OCc2ccc(-c3ccccc3)cc2)[C@@H]1NC(=O)CCNC(=N)N (stereo partly drawn) [Compound 60] | + (Indicates inhibition greater than . . . 50%)
CO[C@H]1[C@H](O)[C@@H](COCc2ccccc2)OC(OCc2ccc(Cl)cc2)[C@@H]1NC(=O)CCCN (stereo partly drawn) [Compound 91] | + (Indicates inhibition greater than . . . 50%)
CO[C@H]1[C@H](O)[C@@H](COCc2cccc(O)c2)OC(OCc2ccc3ccccc3c2)[C@@H]1NC(=O)CCCN (stereo partly drawn) [Compound 109] | + (Indicates inhibition greater than . . . 50%)
CO[C@H]1[C@H](O)[C@@H](COCc2cccc(O)c2)OC(OCc2ccc(Cl)cc2)[C@@H]1NC(=O)CCCN (stereo partly drawn) [Compound 111] | + (Indicates inhibition greater than . . . 50%)
CO[C@H]1[C@H](O)[C@@H](COCc2ccc(Cl)cc2)OC(OCc2cccc(O)c2)[C@@H]1NC(=O)CCCN (stereo partly drawn) [Compound 118] | + (Indicates inhibition greater than . . . 50%)
CSC1OC(COCc2ccccc2)C(O)C(OCc2ccccc2)C1NC(=O)CN (stereo not drawn) [Compound 119] | + (Indicates inhibition greater than . . . 50%)
CSC1OC(COCc2ccccc2)C(O)C(OCc2ccccc2)C1NC(=O)CCCN (stereo not drawn) [Compound 123] | + (Indicates inhibition greater than . . . 50%)
CSC1OC(COCc2ccc(Cl)cc2)C(O)C(OCc2ccccc2)C1NC(=O)CN (stereo not drawn) [Compound 125] | + (Indicates inhibition greater than . . . 50%)
CSC1OC(COCc2ccc(Cl)cc2)C(O)C(OCc2ccccc2)C1NC(=O)CCN (stereo not drawn) [Compound 127] | + (Indicates inhibition greater than . . . 50%)
CSC1OC(COCc2ccc(-c3ccccc3)cc2)C(O)C(OCc2ccccc2)C1NC(=O)CN (stereo not drawn) [Compound 131] | + (Indicates inhibition greater than . . . 50%)
CSC1OC(COCc2ccccc2)C(O)C(OCc2ccc(Cl)cc2)C1NC(=O)CN (stereo not drawn) [Compound 143] | + (Indicates inhibition greater than . . . 50%)
